How the values were obtained:
[1] = test system: F21T (DNA, G4) GGGTTAGGGTTAGGGTTAGGG; experiment: FRET melting; settings: K+ 10 mM (KCl), Na+ 10 mM (cacodylate), Li+ 90 µM [sic]; Na-cacodylate pH 7.2; DNA 0.2 µM, LDR 5 (1 µM ligand); error ± 0.5 °C
[2] = test system: 22AG (DNA, G4) AGGGTTAGGGTTAGGGTTAGGG; experiment: photometric titration (Specfit); settings: K+ (25 mM K2HPO4, 70 mM KCl), K-phosphate pH 7.0, DMSO cosolvent (10% in legend, 5% in methods)
[3] = test system: a2 (DNA, G4) ACAGGGGTGTGGGGACAGGGGTGTGGGG; experiment: photometric titration (Specfit); settings: K+ (25 mM K2HPO4, 70 mM KCl), K-phosphate pH 7.0, DMSO cosolvent (10% in legend, 5% in methods)
[4] = test system: Fa2T (DNA, G4) ACAGGGGTGTGGGGACAGGGGTGTGGGG; experiment: FRET melting; settings: K+ 10 mM (KCl), Na+ 10 mM (cacodylate), Li+ 90 µM [sic]; Na-cacodylate pH 7.2; DNA 0.2 µM, LDR 5 (1 µM ligand); error ± 0.5 °C
[5] = test system: FkrasT (DNA, G4) AGGGCGGTGTGGGAAGAGGA; experiment: FRET melting; settings: K+ 10 mM (KCl), Na+ 10 mM (cacodylate), Li+ 90 µM [sic]; Na-cacodylate pH 7.2; DNA 0.2 µM, LDR 5 (1 µM ligand); error ± 0.5 °C
[6] = test system: FkitT (DNA, G4) AGGGAGGGCGCTGGGAGGAGGG; experiment: FRET melting; settings: K+ 10 mM (KCl), Na+ 10 mM (cacodylate), Li+ 90 µM [sic]; Na-cacodylate pH 7.2; DNA 0.2 µM, LDR 5 (1 µM ligand); error ± 0.5 °C
[7] = test system: FmycT (DNA, G4) TGAGGGTGGGTAGGGTGGGTAA; experiment: FRET melting; settings: K+ 10 mM (KCl), Na+ 10 mM (cacodylate), Li+ 90 µM [sic]; Na-cacodylate pH 7.2; DNA 0.2 µM, LDR 5 (1 µM ligand); error ± 0.5 °C

Structure (SMILES) | ΔTm [1] | log Kb [2] | log Kb ([2]; overall 2:1 constant) | log Kb ([3]; overall 2:1 constant) | ΔTm [4] | log Kb [3] | ΔTm [5] | ΔTm [6] | ΔTm [7]
COc1ccc2cc3[n+](cc2c1OCCCCCn1cc(Cn2cnc4c(N)ncnc42)nn1)CCc1cc2c(cc1-3)OCO2 | 9.9 °C | 5.09 ± 0.13 log (K in M^-1) | 10.8 ± 0.1 log (K in M^-2) | 11.1 ± 0.2 log (K in M^-2) | 0.0 °C | – | – | – | –
COc1ccc2cc3[n+](cc2c1OCCCCn1cc(Cn2cnc4c(N)ncnc42)nn1)CCc1cc2c(cc1-3)OCO2 | 6.4 °C | 5.23 ± 0.09 log (K in M^-1) | 10.7 ± 0.1 log (K in M^-2) | 10.6 ± 0.3 log (K in M^-2) | −0.1 °C | – | – | – | –
COc1ccc2cc3[n+](cc2c1OCCCn1cc(Cn2cnc4c(N)ncnc42)nn1)CCc1cc2c(cc1-3)OCO2 | 6.2 °C | 5.64 ± 0.15 log (K in M^-1) | 10.8 ± 0.2 log (K in M^-2) | 10.6 ± 0.2 log (K in M^-2) | – | 5.39 ± 0.14 log (K in M^-1) | – | – | –
COc1ccc2cc3[n+](cc2c1OCCn1cc(Cn2cnc4c(N)ncnc42)nn1)CCc1cc2c(cc1-3)OCO2 | 3.4 °C | 5.89 ± 0.07 log (K in M^-1) | – | 10.3 ± 0.1 log (K in M^-2) | −0.5 °C | 5.27 ± 0.08 log (K in M^-1) | – | – | –
COc1ccc2cc3[n+](cc2c1OCCCCCCn1cc(Cn2cnc4c(N)ncnc42)nn1)CCc1cc2c(cc1-3)OCO2 | 12.9 °C | – | 10.7 ± 0.1 log (K in M^-2) | 11.1 ± 0.1 log (K in M^-2) | 1.1 °C | – | 10.1 °C | 2.7 °C | 5.0 °C
